# Source: patent publication US20260263593A1, “ALLERGY ANTIGEN AND EPITOPE THEREOF” (HOYU CO., LTD., priority 2018, published 2026)
# Tested on: IgE antibody present in the serum of a shrimp-allergic patient
# Assay: Epitope mapping (1): array of overlapping 15-amino-acid peptides, chemiluminescence
# Format: binding, human
# Details: 15-amino-acid peptide array; serum of 37 patients; difference from N2nd value of 5 non-shrimp-allergic subjects at least 35,000
# Method: Epitope mapping was carried out using a library of overlapping peptides (length: 15 amino acids) corresponding to the amino acid sequences identified as allergy components of shrimp and the amino acid sequence of arginine kinase. Specifically, the library of overlapping peptides was prepared on the basis of the amino acid sequences of SEQ ID NOs: 117, 141, 146, 2, 45, 87, 276, 161, 230, 179, 362, 381, 399, 421, 455, 481, 486, 520, 541, 300 and 306, and arginine kinase.
# The peptides to be synthesized were shifted by 10 amino acids.
# For preparation of peptide arrays, the Intavis CelluSpots™ technique was used. Specifically, the peptide arrays were prepared by the following procedure: (1) synthesizing peptides of interest on amino-modified cellulose disks using an automated chemical synthesis apparatus (Intavis MultiPep RS), (2) dissolving the amino-modified cellulose disks to obtain a cellulose-bound peptide solution, and (3) spotting the cellulose-bound peptides onto coated glass slides. The details of each procedure are as described below.
# Peptide synthesis was carried out in incremental steps through 9-fluorenylmethoxycarbonyl (Fmoc) chemical reaction on amino-modified cellulose disks in 384-well synthesis plates. Specifically, amino acids in which a Fmoc group is bonded to an amino group were activated in a solution of N,N′-diisopropylcarbodiimide (DIC) and 1-hydroxybenzotriazole (HOBt) in dimethylformamide (DMF) and added dropwise to the cellulose disks so that the Fmoc group-bound amino acids were bound to the amino groups on the cellulose disks (coupling). Unreacted amino groups were capped with acetic anhydride and washed with DMF. Furthermore, the Fmoc groups were eliminated from the amino groups of the amino acids bound to the amino groups on the cellulose disks by treatment with piperidine and washing with DMF. The amino acids bound to the amino groups on the cellulose disks were repetitively subjected to the coupling, the capping, and the Fmoc group elimination described above to elongate the amino terminus for peptide synthesis.
# The peptides-bound cellulose disks of interest obtained above in the subsection titled “(1) Synthesis of peptide” were transferred to 96-well plates and treated with a side chain deprotection mixed solution of trifluoroacetic acid (TFA), dichloromethane, triisopropylsilane (TIPS), and water for deprotection of amino acid side chains. Then, the deprotected cellulose-bound peptides were dissolved in a mixed solution of TFA, trifluoromethanesulfonic acid (TFMSA), TIPS, and water and precipitated in tetrabutyl methyl ether (TBME), and the precipitate was resuspended in dimethyl sulfoxide (DMSO) and mixed with a mixed solution of NaCl, sodium citrate, and water to obtain a peptide solution for slide spotting.
# The peptide solution for slide spotting obtained above in the subsection titled “(2) Dissolution of amino-modified cellulose disk” was spotted onto Intavis CelluSpots™ slides using Intavis Slide Spotting Robot, and the slides were dried to prepare peptide arrays.
# The presence or absence of binding, to each peptide fragment, of an IgE antibody present in the serum of a shrimp-allergic patient was measured through antigen-antibody reaction using the peptide arrays. […]
row,Substance,Peptide bound to an IgE antibody in serum in a patient-specific manner
1,"E5: common 15-residue IgE-binding epitope sequence of polypeptide (E5), myosin heavy chain type 2-derived (GTMEELRDERLAKII; VAR_SEQ 1..15 epitope) [Epitope E5]",bound to an IgE antibody in serum in a patient-specific manner
2,"E23: common 15-residue IgE-binding epitope sequence of polypeptide (E23), cyclophilin A-derived (SCFHRVIPNFMCQGG; VAR_SEQ 1..15 epitope) [Epitope E23]",bound to an IgE antibody in serum in a patient-specific manner
3,"E26: common 15-residue IgE-binding epitope sequence of polypeptide (E26), myosin heavy chain type 1-derived (PDPDPTEYLFISREQ; VAR_SEQ 1..15 epitope) [Epitope E26]",bound to an IgE antibody in serum in a patient-specific manner
4,"E8: common 15-residue IgE-binding epitope sequence of polypeptide (E8), myosin heavy chain type 2-derived (LEEADNQINQLNNLK; VAR_SEQ 1..15 epitope) [Epitope E8]",bound to an IgE antibody in serum in a patient-specific manner
5,"E1: common 15-residue IgE-binding epitope sequence of polypeptide (E1), myosin heavy chain type 1-derived (ADIEVYLLEKARVIS; VAR_SEQ 1..15 epitope) [Epitope E1]",bound to an IgE antibody in serum in a patient-specific manner
6,"E45: common 15-residue IgE-binding epitope sequence of polypeptide (E45), pyruvate kinase 3-derived (WHKQLFTELSQQVHL; VAR_SEQ 1..15 epitope) [Epitope E45]",bound to an IgE antibody in serum in a patient-specific manner
7,"E7: common 15-residue IgE-binding epitope sequence of polypeptide (E7), myosin heavy chain type 2-derived (AKSAMDSLARDKALA; VAR_SEQ 1..15 epitope) [Epitope E7]",bound to an IgE antibody in serum in a patient-specific manner
8,"E44: common 15-residue IgE-binding epitope sequence of polypeptide (E44), hemocyanin subunit L1-derived (VRIFAWPHLDNNGIK; VAR_SEQ 1..15 epitope) [Epitope E44]",bound to an IgE antibody in serum in a patient-specific manner
9,"E37: common 15-residue IgE-binding epitope sequence of polypeptide (E37), myosin heavy chain type 1-derived (IMHQLTCNGVLEGIR; VAR_SEQ 1..15 epitope) [Epitope E37]",bound to an IgE antibody in serum in a patient-specific manner
10,"E22: common 15-residue IgE-binding epitope sequence of polypeptide (E22), cyclophilin A-derived (VMELRADVVPKTAEN; VAR_SEQ 1..15 epitope) [Epitope E22]",bound to an IgE antibody in serum in a patient-specific manner
11,"E4: common 15-residue IgE-binding epitope sequence of polypeptide (E4), myosin heavy chain type 1-derived (HGELEESRTLLEQSD; VAR_SEQ 1..15 epitope) [Epitope E4]",bound to an IgE antibody in serum in a patient-specific manner
12,"E48: common 15-residue IgE-binding epitope sequence of polypeptide (E48), troponin I-derived (EEIDRKKAEVRKRLE; VAR_SEQ 1..15 epitope) [Epitope E48]",bound to an IgE antibody in serum in a patient-specific manner
13,"E34: common 15-residue IgE-binding epitope sequence of polypeptide (E34), myosin heavy chain type 1-derived (VQVNPPKYEKCEDVS; VAR_SEQ 1..15 epitope) [Epitope E34]",bound to an IgE antibody in serum in a patient-specific manner
14,"E20: common 15-residue IgE-binding epitope sequence of polypeptide (E20), mitochondrial ATP synthase subunit alpha precursor-derived (PESDAKLKQIVTDFL; VAR_SEQ 1..15 epitope) [Epitope E20]",bound to an IgE antibody in serum in a patient-specific manner

# Tested on: IgE antibodies from patients having allergies to each food
# Assay: Confirmation of epitope cross-reactivity by ELISA with N-terminally biotinylated peptides
# Format: binding, human
# Details: serum of allergic patient versus nonallergic subject
# Method: The binding activity of peptides comprising the amino acid sequences described in the column “Synthesis sequence” and the rightmost column “SEQ ID NO” of Table 3 against IgE antibodies from patients having allergies to each food described in the column “Food with which cross-reactivity was confirmed” in Tables 3-1 to 3-50 was confirmed by ELISA. The peptides were synthesized such that the peptides were N-terminally biotinylated by the Fmoc method.
# To be specific, ELISA was carried out according to the following procedure. • (1) The concentrations of the biotinylated peptides were adjusted to 10 μg/mL with PBST (0.1% Tween 20). • (2) Each peptide solution was added at 20 μL to each well of a 384-well plate coated with streptavidin, and shaken at room temperature for one hour. After collection of the solution, the wells were washed with PBS five times. • (3) Pierce Protein-Free (PBS) Blocking Buffer (produced by Thermo) was added at 40 μL thereto and shaken at room temperature for one hour. After removal of the solution, the wells were washed with PBST five times. • (4) 2% serum/Canget SignalSolution I (produced by TOYOBO) was added at 20 μL thereto and shaken at room temperature for one hour. After removal of the solution, the wells were washed with PBST five times. • (5) A diluted secondary antibody solution (1:10000, Canget SignalSolution II (produced by TOYOBO)) was added at 20 μL thereto and shaken at room temperature for one hour. After removal of the solution, the wells were washed with PBST five times. • (6) 1-Step Ultra TMB-ELISA (produced by Thermo) was added at 20 μL thereto and shaken at room temperature for 15 minutes. • (7) 2 M H2SO4 was added at 20 μL thereto. Absorbance at 450 nm was measured.
# Peptides having these amino acid sequences were prepared by the same procedure as described in Example 4(A), and the presence or absence of binding thereto of IgE antibodies present in the serum of an allergic patient and the serum of a nonallergic subject was measured. The serum of two nonallergic subjects was measured, and values obtained by dividing the measurement values by an average value thereof were described.
# The ordinate of each figure depicts “absorbance of the allergic patient/absorbance of the nonallergic patient (healthy subject)”. Different contrasts of two bar graphs for the same sequences mean separate patients. For example, graph No. 8 and No. 10 in FIG. 7 are results about different patients as to peptides having the same sequences. The names of the cooking ingredients described in each graph are the names of cooking ingredients containing a polypeptide comprising an amino acid sequence serving as the basis of each synthetic sequence used.
row,Substance,Epitope cross-reactivity
1,"SEQ ID NO: 587: polypeptide consisting of 4 amino acid residues, epitope sequence of polypeptide (E4) (ELEE; VAR_SEQ 1..4 epitope)",confirmed in many samples
2,"SEQ ID NO: 655: polypeptide consisting of 4 amino acid residues, epitope sequence of polypeptide (E11) (KNAK; VAR_SEQ 1..4 epitope)",confirmed in many samples
3,"SEQ ID NO: 595: polypeptide consisting of 4 amino acid residues, epitope sequence of polypeptide (E5) (MEEL; VAR_SEQ 1..4 epitope)",confirmed in many samples
4,"SEQ ID NO: 662: polypeptide consisting of 4 amino acid residues, epitope sequence of polypeptide (E11) (NAKR; VAR_SEQ 1..4 epitope)",confirmed in many samples
5,"SEQ ID NO: 636: polypeptide consisting of 4 amino acid residues, epitope sequence of polypeptide (E9) (SQKE; VAR_SEQ 1..4 epitope)",confirmed in many samples
6,"SEQ ID NO: 593: polypeptide consisting of 4 amino acid residues, epitope sequence of polypeptide (E4) (TLLEPE; VAR_SEQ 1..6 epitope)",confirmed in many samples
